Assay results taken from US8349870B2 (priority 2008, dated 2013).
Read-outs that look alike come from different tables or passages of the source.

Experiments:
Assay type in all cases: in vivo
[1] = system: Plasmopara viticola; experiment: Test A: grape downy mildew, spray after inoculation, visual disease rating (% disease control); conditions: 100 = 100% disease control, 0 = no control
Excerpt: General protocol for preparing test suspensions for Test A-C: The test compounds were first dissolved in acetone in an amount equal to 3% of the final volume and then suspended at the desired concentration (in ppm) in acetone and purified water (50/50 mix by volume) containing 250 ppm of the surfactant Trem® 014 (polyhydric alcohol esters). The resulting test suspensions were then used in Tests A-C. Spraying a 200 ppm test suspension to the point of run-off on the test plants was equivalent to a rate of 500 g/ha.
Grape seedlings were inoculated with a spore suspension of Plasmopara viticola (the causal agent of grape downy mildew) and incubated in a saturated atmosphere at 20° C. for 24 h. After a short drying period, the test suspension was sprayed to the point of run-off on the grape seedlings, which were then moved to a growth chamber at 20° C. for 5 days, after which time the grape seedling were placed back into a saturated atmosphere at 20° C. for 24 h. Upon removal, visual disease ratings were made.
Results for Tests A-C are given in Table A. In the table, a rating of 100 indicates 100% disease control and a rating of 0 indicates no disease control (relative to the controls). A dash (-) indicates no test results, “*” indicates compound was tested at 40 ppm and “**” indicates compound was tested at 10 ppm.

[2] = system: Phytophthora infestans; conditions: tomato late blight, sprayed the day before inoculation
[3] = system: Phytophthora infestans; conditions: tomato late blight, sprayed 17 h after inoculation
[4] = Cmpd No. unmarked, rate not stated in table (b1197 mentions a 200 ppm test suspension)

Compound	Test A rating (% disease control) ([1]; "*" compound tested at 40 ppm)	Test B rating (% disease control) ([2]; "*" compound tested at 40 ppm)	Test C rating (% disease control) ([3]; "*" compound tested at 40 ppm)	other results
CSC(=Nc1cc(C)ccc1C)N1CCC(c2nc(C3=NOC(c4c(F)cccc4F)C3)cs2)CC1.I (stereo not drawn) [compound 26]	99%	100%	93%	–
Cc1ccc(C)c(N=C(N)N2CCC(c3nc(C4=NOC(c5c(F)cccc5F)C4)cs3)CC2)c1 (stereo not drawn) [compound 31]	99%	100%	97%	–
Cc1ccc(C)c(N=CN2CCC(c3nc(C4=NOC(c5ccccc5)C4)cs3)CC2)c1.Cl (stereo not drawn) [compound 21]	–	–	–	Test A rating (% disease control) [1, 4]: 0%; Test B rating (% disease control) [2, 4]: 95%; Test C rating (% disease control) [3, 4]: 0%
CC(CC(=O)N1CCC(c2nc(C3=NOC(c4ccccc4F)C3)cs2)CC1)C(F)(F)F (stereo not drawn) [Example 6, 1-[4-[4-[4,5-dihydro-5-(2-fluorophenyl)-3-isoxazolyl]-2-thiazolyl]-1-piperidinyl]-4,4,4-trifluoro-3-methyl-1-butanone]	–	–	–	Test A rating (% disease control) [1, 4]: 0%; Test B rating (% disease control) [2, 4]: 33%; Test C rating (% disease control) [3, 4]: 0%
Cc1cc(C)c(C(=O)C(=O)N2CCC(c3nc(C4=NOC(c5ccccc5F)C4)cs3)CC2)c(C)c1 (stereo not drawn) [compound 51]	0%	52%	0%	–
4-[4-(4,5-dihydro-5-phenyl-3-isoxazolyl)-2-thiazolyl]-N-2-propen-1-yl]-1-piperidinecarbothioamide [Example 5]	83%	99%	73%	–
CC(=O)C(=O)N1CCC(c2nc(C3=NOC(c4c(F)cccc4F)C3)cs2)CC1 (stereo not drawn) [compound 65]	88%	100%	99%	–
N#CCC(=O)N1CCC(c2nc(C3=NOC(c4c(F)cccc4F)C3)cs2)CC1 (stereo not drawn) [compound 63]	94%	100%	92%	–
CONC(=Nc1cc(C)ccc1C)N1CCC(c2nc(C3=NOC(c4c(F)cccc4F)C3)cs2)CC1 (stereo not drawn) [compound 34]	100%	100%	97%	–
CCN(CC)C(=O)N1CCC(c2nc(C3=NOC(c4ccccc4)C3)cs2)CC1 (stereo not drawn) [compound 12]	–	–	–	Test A rating (% disease control) [1, 4]: 8%; Test B rating (% disease control) [2, 4]: 40%; Test C rating (% disease control) [3, 4]: 0%
O=C(C(=O)N1CCC(c2nc(C3=NOC(c4ccccc4F)C3)cs2)CC1)c1cccs1 (stereo not drawn) [compound 46]	0%	0%	0%	–
Cc1ccc(C)c(C(=O)NC(=O)N2CCC(c3nc(C4=NOC(c5c(F)cccc5F)C4)cs3)CC2)c1 (stereo not drawn) [compound 36]	0%	99%	99%	–
Cc1ccc(C)c(N=C(N)N2CCC(c3nc(C4=NOC(c5ccccc5)C4)cs3)CC2)c1 (stereo not drawn) [compound 23]	–	–	–	Test A rating (% disease control) ([1]; "**" compound tested at 10 ppm): 79%; Test B rating (% disease control) ([2]; "**" compound tested at 10 ppm): 100%; Test C rating (% disease control) ([3]; "**" compound tested at 10 ppm): 33%
O=C(CCOCC(F)(F)F)N1CCC(c2nc(C3=NOC(c4c(F)cccc4F)C3)cs2)CC1 (stereo not drawn) [compound 77]	–	–	–	Test A rating (% disease control) ([1]; "**" compound tested at 10 ppm): 100%; Test B rating (% disease control) ([2]; "**" compound tested at 10 ppm): 100%; Test C rating (% disease control) ([3]; "**" compound tested at 10 ppm): 99%
4-[4-(4,5-dihydro-5-phenyl-3-isoxazoly)-2-thiazolyl]-N-pentyl-1-piperidinecarboxamide [Example 4]	86%	100%	76%	–
O=C(COCC(F)(F)F)N1CCC(c2nc(C3=NOC(c4c(F)cccc4F)C3)cs2)CC1 (stereo not drawn) [compound 74]	–	–	–	Test A rating (% disease control) ([1]; "**" compound tested at 10 ppm): 100%; Test B rating (% disease control) ([2]; "**" compound tested at 10 ppm): 10%; Test C rating (% disease control) ([3]; "**" compound tested at 10 ppm): 97%

Compound	Test A rating (% disease control) ([1]; "*" compound tested at 40 ppm)	Test B rating (% disease control) ([2]; "*" compound tested at 40 ppm)	Test C rating (% disease control) ([3]; "*" compound tested at 40 ppm)	other results
CCC(=O)C(=O)N1CCC(c2nc(C3=NOC(c4c(F)cccc4F)C3)cs2)CC1 (stereo not drawn) [compound 66]	–	100%	99%	–
Cc1cc(C(F)(F)F)nn1C(=O)C(=O)N1CCC(c2nc(C3=NOC(c4ccccc4F)C3)cs2)CC1 (stereo not drawn) [compound 41]	17%	26%	0%	–
O=C(C(=O)N1CCC(c2nc(C3=NOC(c4c(F)cccc4F)C3)cs2)CC1)c1ccco1 (stereo not drawn) [compound 72]	100%	100%	99%	–
CSC(=Nc1cc(C)ccc1C)N1CCC(c2nc(C3=NOC(c4ccccc4)C3)cs2)CC1 (stereo not drawn) [Example 1, methyl 4-[4-(4,5-dihydro-5-phenyl-3-isoxazolyl)-2-thiazolyl]-N-(2,5-dimethylphenyl)-1-piperidinecarboximidothioate]	96%	97%	53%	–
O=C(C(O)C(F)(F)F)N1CCC(c2nc(C3=NOC(c4c(F)cccc4F)C3)cs2)CC1 (stereo not drawn) [compound 53]	–	100%	95%	–
Cc1ccc(C)c(N=C(N(C)C)N2CCC(c3nc(C4=NOC(c5ccccc5)C4)cs3)CC2)c1 (stereo not drawn) [compound 24]	79%	97%	39%	–
CNC(=Nc1cc(C)ccc1C)N1CCC(c2nc(C3=NOC(c4ccccc4)C3)cs2)CC1 (stereo not drawn) [compound 28]	43%	95%	0%	–
C#CCCC(=O)N1CCC(c2nc(C3=NOC(c4ccccc4F)C3)cs2)CC1 (stereo not drawn) [Example 8, 1-[4-[4-[4,5-dihydro-5-(2-fluorophenyl)-3-isoxazolyl]-2-thiazolyl]-1-piperidinyl]-4-pentyn-1-one]	–	–	–	Test A rating (% disease control) [1, 4]: 46%; Test B rating (% disease control) [2, 4]: 40%; Test C rating (% disease control) [3, 4]: 0%
CC(C)C(O)C(=O)N1CCC(c2nc(C3=NOC(c4c(F)cccc4F)C3)cs2)CC1 (mixture of isomers) [compound 54]	–	100%	99%	–
CCNC(=O)N1CCC(c2nc(C3=NOC(c4ccccc4)C3)cs2)CC1 (stereo not drawn) [compound 13]	–	–	–	Test A rating (% disease control) [1, 4]: 57%; Test B rating (% disease control) [2, 4]: 99%; Test C rating (% disease control) [3, 4]: 0%
Cc1ccc(C)c(S(=O)(=O)NC(=O)N2CCC(c3nc(C4=NOC(c5ccccc5)C4)cs3)CC2)c1 (stereo not drawn) [compound 33]	0%	0%	0%	–
CCC(O)C(=O)N1CCC(c2nc(C3=NOC(c4c(F)cccc4F)C3)cs2)CC1 (stereo not drawn) [compound 48]	88%	100%	91%	–
O=C(C(=O)N1CCC(c2nc(C3=NOC(c4ccccc4F)C3)cs2)CC1)c1ccccc1 (stereo not drawn) [compound 45]	0%	0%	0%	–
CC(C)CC(O)C(=O)N1CCC(c2nc(C3=NOC(c4c(F)cccc4F)C3)cs2)CC1 (stereo not drawn) [compound 57]	–	100%	97%	–
CCCCCCC(O)C(=O)N1CCC(c2nc(C3=NOC(c4c(F)cccc4F)C3)cs2)CC1 (stereo not drawn) [compound 61]	–	100%	47%	–
CCCCC(O)C(=O)N1CCC(c2nc(C3=NOC(c4c(F)cccc4F)C3)cs2)CC1 (stereo not drawn) [compound 58]	–	100%	99%	–
